This is an account of results in PMC12040169 (PLOS Biology, 2025).

The series is described as follows: in vitro. The settings on record: human, hela cells, % viability.

Each structure is given as a SMILES string.

With `COc1ccc(CNC(=O)c2sc3nc4c(c(C(F)(F)F)c3c2N)CCC4)cc1OC` [CBK074568], the viability (as a rule, a read-out of living cells in per cent, often relative to untreated cells) at 28.5 h, 10 µM turned out to be 85.7%.
Consider `O=C(O)c1ccc(N2C(=O)CC(N3CCN(Cc4ccc5c(c4)OCO5)CC3)C2=O)cc1` (centres unmarked) [CBK074573], for which the viability at 28.5 h, 10 µM amounted to 87.1%.
With `O=S(=O)(c1cccc(C(F)(F)F)c1)N1CCN(Cc2ccc3c(c2)OCO3)CC1` [CBK074594], the viability at 28.5 h, 10 µM is 89.8%.
With `O=S(=O)(c1c(F)cccc1F)N1CCN(Cc2ccc3c(c2)OCO3)CC1` [CBK074600] the figure was 91.5%; with `COc1cc(CN2CCN(C(=O)c3cccc(F)c3)CC2)cc(OC)c1O` [CBK074633], 95.2%.
Next, `OC(COc1ccc(OC(F)(F)F)cc1)CN1CCN(c2nc3ccc(Cl)cc3s2)CC1` (centres unmarked) [CBK074639]: 122%.
Regarding `OC(CNC1CCN(Cc2ccccc2)CC1)COc1ccc2c(c1)OCO2` (centres unmarked) [CBK074645], the viability at 28.5 h, 10 µM is 96.5%.
With `O=[N+]([O-])c1ccc(OCC(O)CN2CCCN(c3nc4ccc(Cl)cc4s3)CC2)cc1` (centres unmarked) [CBK074647], the viability at 28.5 h, 10 µM was found to be 85.9%.
For `O=C1CC2(CCCC2)C(=O)N1c1ccc(S(=O)(=O)NC2CCN(Cc3ccccc3)CC2)cc1Cl` [CBK074650], the viability at 28.5 h, 10 µM came out at 99.8%.
Next, `O=C(NCCCN1CCN(Cc2ccccc2)CC1)c1cn2cc(C(F)(F)F)cc(Cl)c2n1` [CBK074654]: 89.3%; `COc1cc2c(cc1OC)C(C)N(Cc1cc(C)c(O)c(C)c1)CC2` (centres unmarked) [CBK074659C]: 99.9%; `COc1ccc(CCN2CN=C(SCc3ccc(Cl)cc3)NC2)cc1OC` [CBK074665C]: 95.3%.
Next, `OC(COc1cccc(C(F)(F)F)c1)CN1CCN(c2nc(-c3ccccc3)ns2)CC1` (centres unmarked) [CBK074678]: 93%; `O=C(CN1CCN(c2ccc([N+](=O)[O-])cn2)CC1)Nc1ccc2c(c1)OCO2` [CBK074679]: 115%.
Turning to `OC(CSc1ccccc1)CN1CCN(C(c2ccccc2)c2ccccc2)CC1` (centres unmarked) [CBK074683], the viability at 28.5 h, 10 µM amounted to 91.3%.
Regarding `OC(CSc1ccc(F)cc1)CN1CCN(c2ccc(C(F)(F)F)cn2)CC1` (centres unmarked) [CBK074688], the viability at 28.5 h, 10 µM was determined as 91.2%.
With `OC(CNCc1ccc2c(c1)OCO2)COc1ccc(SC(F)(F)F)cc1` (centres unmarked) [CBK074691] the figure was 120%.
Next, `OC(COc1ccc(F)cc1)CN1CCN(c2nc(-c3ccccc3)ns2)CC1` (centres unmarked) [CBK074698]: 91.8%; `O=C(CN1CCN(c2ccc(C(F)(F)F)cn2)CC1)c1ccccc1` [CBK074699]: 111%; `O=C(CN1CCN(c2ccc(C(F)(F)F)cn2)CC1)c1ccc2c(c1)OCCO2` [CBK074700]: 98.3%.
Next, `O=C(c1cccc(CN2CCN(c3nc(-c4ccccc4)ns3)CC2)c1)N1CCC(O)CC1` [CBK074709]: 110%; `O=C(CN1CCN(CCCc2c[nH]c3ccc(F)cc23)CC1)N(c1ccccc1)C1CCCCC1` [CBK074710]: 92.1%.
For the compound `O=C(CN1CCC(NC(=O)c2ccccc2)CC1)Nc1ccccc1` [CBK074716], the viability at 28.5 h, 10 µM worked out at 96.7%.
`O=C(c1c(F)cccc1Cl)N1CCN(Cc2ccc3c(c2)OCO3)CC1` [CBK074724]: the viability at 28.5 h, 10 µM was 93.9%.
With `O=C(c1sccc1Br)N1CCN(Cc2ccc3c(c2)OCO3)CC1` [CBK074730] the figure was 100%; with `CCCc1ccc(S(=O)(=O)N2CCN(Cc3ccc4c(c3)OCO4)CC2)cc1` [CBK074735], 107%; with `OC(CSc1ccccc1)CN1CCN(Cc2ccc3c(c2)OCO3)CC1` (centres unmarked) [CBK074761], 87.2%.
Next, `O=C(CNCc1ccc2c(c1)OCO2)NCc1ccc2c(c1)OCO2` [CBK074763]: 86.8%; `O=C(CNC1Cc2ccccc2C1)Nc1ccc(Cl)cc1C(=O)c1ccccc1Cl` [CBK074764]: 100%; `COc1cc(OCc2ccccc2)ccc1CN1CCN(Cc2ccccc2)CC1` [CBK074766]: 88.1%.
With `N#Cc1cccc(NC(=O)CN2CCN(C(=O)C3COc4ccccc4O3)CC2)c1` (centres unmarked) [CBK074779] the figure was 93.5%; with `O=S1(=O)CCN(Cc2ccc3c(c2)OCO3)CC1` [CBK074780], 93.9%; with `O=S1(=O)CCN(CC2COc3ccccc3O2)CC1` (centres unmarked) [CBK074789], 88.5%.
With `COc1cc2cc(C(=O)N3CCN(Cc4ccc5c(c4)OCO5)CC3)c(=O)oc2cc1OC` [CBK074790], the viability at 28.5 h, 10 µM came out at 102%.
With `Nc1nc(C2COc3ccccc3O2)ncc1S(=O)(=O)c1ccc(Cl)cc1` (centres unmarked) [CBK074808] the figure was 96.2%.
Next, `O=S(=O)(CCN1CCN(C(c2ccccc2)c2ccccc2)CC1)c1ccc(Cl)cc1` [CBK074810]: 92%; `COc1ccc(CCN2CNc3c(c(=O)n(C)c(=O)n3C)C2)cc1OC` [CBK074818]: 86%; `N[C@H](CSCc1ccccc1)C(=O)Nc1ccc([N+](=O)[O-])cc1` [CBK074824]: 88.8%.
Consider `Cc1cc(C(=O)N2CCN(Cc3ccc4c(c3)OCO4)CC2)nn1C` [CBK074832], for which the viability at 28.5 h, 10 µM amounted to 111%.
For `OC(CN1CCN(Cc2ccc3c(c2)OCO3)CC1)C(F)(F)F` (centres unmarked) [CBK074833], the viability at 28.5 h, 10 µM came out at 108%.
As for `OC(CNCC1COc2ccccc2O1)C(F)(F)F` (centres unmarked) [CBK074834], the viability at 28.5 h, 10 µM is 102%.
For the compound `COc1ccccc1N1CCN(CCCCNC(=O)c2ccc(Cl)cc2)CC1` [CBK074835], the viability at 28.5 h, 10 µM turned out to be 93%.
For `CC(C)(C)C(=O)N1CCN(Cc2ccc3c(c2)OCO3)CC1` [CBK074842], the viability at 28.5 h, 10 µM was determined as 88.8%.
On to `OC(COc1ccc2c(c1)OCO2)CN1CCN(C(c2ccccc2)c2ccccc2)CC1` (centres unmarked) [CBK074854C], for which the viability at 28.5 h, 10 µM was determined as 87.5%.
Next, `OC(COc1ccc(-c2ccccc2)cc1)CN1CCN(Cc2ccccc2)CC1` (centres unmarked) [CBK074855C]: 94.6%.
Regarding `COc1cccc(OCC(O)CN2CCN(Cc3ccccc3)CC2)c1` (centres unmarked) [CBK074856C], the viability at 28.5 h, 10 µM is 108%.
`CCCn1c(O)nnc1-c1cccnc1` [CBK074889]: the viability at 28.5 h, 10 µM amounted to 86.8%.
Next, `CC(C)CC1OC(NC2CCCCCC2)=NC1=O` (centres unmarked) [CBK074901]: 88.8%; `Cc1ccccc1NC1=NC(=O)C(CC(C)C)O1` (centres unmarked) [CBK074902]: 116%; `CC(C)(C)c1nnc(NCc2ccccc2)s1` [CBK074922]: 95.7%.
Regarding `CC(=O)N1CCc2c([nH]c3ccccc23)[C@@]12CCN(Cc1ccc(F)cc1)C2` [CBK074955], the viability at 28.5 h, 10 µM was found to be 83%.
For the compound `COc1ccc([C@@]23CC[C@@H](NC(=O)Cc4ccc(Cl)cc4)CC2N(C)CC3)cc1OC` (some centres unmarked) [CBK074971T], the viability at 28.5 h, 10 µM worked out at 96%.
Take `COc1ccc([C@@]23CC[C@@H](NC(=O)c4ccc(-c5ccccc5)cc4)CC2N(C)CC3)cc1OC` (some centres unmarked) [CBK074973T]: the viability at 28.5 h, 10 µM is 89.6%.
With `CCCc1[nH]nc(O)c1Cc1ccc(C(F)(F)F)cc1` [CBK075014] the figure was 88.9%.
Regarding `COc1ccc(C(NC(=O)C2CCCN(C(=O)NC(=O)c3ccccc3)C2)c2ccccc2C)cn1` (centres unmarked) [CBK075023], the viability at 28.5 h, 10 µM worked out at 90.9%.
Next, `CCCc1[nH]nc(O)c1Cc1cc(F)ccc1Br` [CBK075031]: 94.6%; `CCCc1[nH]nc(O)c1Cc1cccc(C)c1` [CBK075035]: 91.3%; `CCCc1[nH]nc(O)c1Cc1ccccc1C(F)(F)F` [CBK075037]: 92.7%.
Next, `COc1ccc(C(NC(=O)[C@H]2CCCN2C(=O)c2c(-c3ccccc3)noc2C)c2ccccc2C)cn1` (some centres unmarked) [CBK075055]: 98.4%.
Next, `CC(C)(C)c1nsc(NC2CCCCCC2)n1` [CBK075061]: 96.6%; `CCOC(=O)c1sc(-c2cccc(C(F)(F)F)c2)nc1O` [CBK075064]: 92%; `CCCc1[nH]nc(O)c1CCc1ccccc1` [CBK075083]: 108%.
Turning to `O=C1CCC(=O)N1CCOc1nccnc1OC1CCNCC1` [CBK075084T], the viability at 28.5 h, 10 µM worked out at 101%.
With `CCOC(=O)c1sc(-c2ccc(Br)cc2)nc1O` [CBK075087] the figure was 103%; with `COc1ccc([C@]23CN(C)C[C@H]2CCN(C(=O)Nc2cccc(Cl)c2)C3)cc1OC` [CBK075104T], 112%.
As for `COc1ccc([C@]23CN(C)C[C@H]2CCN(C(=O)Nc2cccc(Br)c2)C3)cc1OC` [CBK075106T], the viability at 28.5 h, 10 µM was determined as 105%.
Regarding `COc1ccc([C@]23CN(C)C[C@H]2CCN(C(=O)c2ccc4c(c2)OC(F)(F)O4)C3)cc1OC` [CBK075110T], the viability at 28.5 h, 10 µM came to 94.8%.
Next, `COc1ccc(-c2c(O)n[nH]c2CCC2CCCC2)cc1` [CBK075126]: 88.1%; `COc1ccccc1-c1c(O)n[nH]c1C(C)C` [CBK075133]: 111%.
Next, `CCN1C(=O)C2(CC(=O)N(CCCN(C)C(=O)c3ccco3)C2=O)c2cc(C)ccc21` (centres unmarked) [CBK075141]: 94.3%; `COC(=O)CN1C(=O)CC2(C1=O)C(=O)N(Cc1ccccc1)c1ccc(F)cc12` (centres unmarked) [CBK075143]: 95.7%.
With `CNC(=O)CN1C(=O)CC2(C1=O)C(=O)N(CCOC)c1ccc(OC)cc12` (centres unmarked) [CBK075144] the figure was 90.8%; with `COCCN1C(=O)C2(CC(=O)N(CCCCC(C)C)C2=O)c2cc(OC)ccc21` (centres unmarked) [CBK075145], 109%.
`C=CCN1C(=O)C2(CC(=O)N(Cc3ccc(OC)c(OC)c3)C2=O)c2ccccc21` (centres unmarked) [CBK075148]: the viability at 28.5 h, 10 µM stood at 114%.
Next, `C=CCN1C(=O)C2(CC(=O)N(CCOc3ccccc3)C2=O)c2ccccc21` (centres unmarked) [CBK075159]: 101%; `COCCN1C(=O)C2(CC(=O)N(CC3CCCCC3)C2=O)c2cc(OC)ccc21` (centres unmarked) [CBK075166]: 90%.
Next, `CCN1C(=O)C2(CC(=O)N(Cc3ccc(OC)c(OC)c3)C2=O)c2cc(C)ccc21` (centres unmarked) [CBK075172]: 85.4%.
